Values quoted from earlier work in patent US20250205347A1, “METHODS FOR TREATING INFLAMMATORY CONDITIONS OF THE EYE WITH AN IGF-1R LIGAND CONJUGATED TO A DISEASE-MODIFYING AGENT” (Lirum Therapeutics, Inc., priority 2022, published 2025).

B1: IGF132: IGF-1 variant (SEQ ID NO:4): first 17 amino acids of insulin B chain replace first 16 amino acids of human IGF-1 (protein)
chain: FVNQHLCGSHLVEALYLVCGDRGFYFNKPTGYGSSSRRAPQTGIVDECCFRSCDLRRLEMYCAPLKPAKSA

Legend:
IGFBPs = conditions: known in the art (U.S. Pat. No. 4,876,242; Francis et al. 1992)
IGF-1R = IGF-1R (Homo sapiens, UniProt P08069); conditions: relative to IGF-1 / IGF-2; Hakuno et al. 2018
IGF-1R, sequence (P08069 31-736 limits assumed, species assumed): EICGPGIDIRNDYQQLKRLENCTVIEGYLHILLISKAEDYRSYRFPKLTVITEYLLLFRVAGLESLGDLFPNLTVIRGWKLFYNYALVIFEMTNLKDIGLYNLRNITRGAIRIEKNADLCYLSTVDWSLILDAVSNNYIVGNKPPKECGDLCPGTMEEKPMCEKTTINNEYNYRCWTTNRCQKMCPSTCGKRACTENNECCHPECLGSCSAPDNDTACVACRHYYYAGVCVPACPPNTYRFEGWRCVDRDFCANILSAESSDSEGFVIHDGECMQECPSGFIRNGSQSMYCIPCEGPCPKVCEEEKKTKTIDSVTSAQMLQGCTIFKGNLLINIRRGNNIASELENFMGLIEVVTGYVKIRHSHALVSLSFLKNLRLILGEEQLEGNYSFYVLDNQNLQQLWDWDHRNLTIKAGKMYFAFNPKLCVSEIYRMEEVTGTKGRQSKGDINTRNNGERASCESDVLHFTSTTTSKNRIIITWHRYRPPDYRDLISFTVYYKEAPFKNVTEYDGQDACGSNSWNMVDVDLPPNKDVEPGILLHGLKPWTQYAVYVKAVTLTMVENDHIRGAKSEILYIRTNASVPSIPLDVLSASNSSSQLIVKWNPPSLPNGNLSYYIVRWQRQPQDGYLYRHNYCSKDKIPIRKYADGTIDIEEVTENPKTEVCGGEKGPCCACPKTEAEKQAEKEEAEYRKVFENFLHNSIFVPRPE
IGF-1R, sequence (P08069 741-1367 partner limits assumed, species assumed): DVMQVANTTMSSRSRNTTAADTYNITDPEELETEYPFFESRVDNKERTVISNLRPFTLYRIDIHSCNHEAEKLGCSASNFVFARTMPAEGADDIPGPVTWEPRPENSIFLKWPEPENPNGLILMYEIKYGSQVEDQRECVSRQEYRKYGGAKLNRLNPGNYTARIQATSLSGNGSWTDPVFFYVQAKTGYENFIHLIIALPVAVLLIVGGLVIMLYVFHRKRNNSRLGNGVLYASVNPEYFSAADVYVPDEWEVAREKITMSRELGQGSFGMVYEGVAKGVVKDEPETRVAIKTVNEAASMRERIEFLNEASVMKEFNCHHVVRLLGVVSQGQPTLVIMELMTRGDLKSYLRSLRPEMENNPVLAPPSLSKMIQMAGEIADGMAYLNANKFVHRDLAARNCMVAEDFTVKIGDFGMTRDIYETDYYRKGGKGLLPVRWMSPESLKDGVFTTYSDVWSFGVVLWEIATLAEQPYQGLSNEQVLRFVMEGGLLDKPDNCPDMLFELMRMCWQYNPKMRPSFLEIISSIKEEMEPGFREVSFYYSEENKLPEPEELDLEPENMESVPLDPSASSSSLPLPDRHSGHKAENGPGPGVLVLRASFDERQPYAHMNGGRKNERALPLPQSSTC

Molecule	binding affinity for IGFBPs as compared to wildtype IGF-1 (IGFBPs)	affinity of IGF-1R for the ligand, fold lower (IGF-1R)
R3-IGF-1: IGF-1 variant (SEQ ID NO:6): glutamic acid in position 3 of human IGF-1 substituted by arginine	reduced binding affinity for IGFBPs	–
insulin: native IGF-1R ligand; mature human insulin, chain A SEQ ID NO:10 and chain B SEQ ID NO:11	–	50-to 100 fold
des(1-3) IGF-1: IGF-1 variant (SEQ ID NO:7) lacking the first three amino acids of human IGF-1	reduced binding affinity for IGFBPs	–
B1	reduced binding affinity for IGFBPs	–
